Tests used:
[1] = test system: LoVo; assay: Induction of apoptosis in human LoVo cells assessed as necrotic cells at 3 uM incubated for 24 hrs by Annexin-V-FITC-PI staining based flow cytometric analysis (reference value: 0.97 %); assay type: functional
[2] = Permeability across apical to basolateral side in human Caco-2 cells at 0.1 to 10 uM incubated for 120 mins by LC-MS/MS analysis; assay type: ADME, cell-based; conditions: caco-2, 2 h, dose 0.1-10 µM
[3] = Permeability across apical to basolateral side in human MDCK-MDR1 cells at 0.1 to 10 uM incubated for 120 mins by LC-MS/MS analysis; assay type: ADME, cell-based, Canis lupus familiaris; conditions: dog, mdck-mdr1, 2 h, dose 0.1-10 µM
[4] = Plasma protein binding in Beagle dog at 1 uM incubated for 5 hrs in HTD dialysis in the presence of verapamil by LC-MS/MS analysis relative to control; assay type: ADME, cell-free, Canis lupus familiaris; conditions: read-out: PPB (converted)
[5] = Drug metabolism in CD-1 mouse plasma by LC-MS/MS analysis; assay type: ADME, cell-free; conditions: 5 h, 1 µM
[6] = target: CYP2C9 (Homo sapiens, UniProt P11712); assay: Inhibition of recombinant human CYP2C9 assessed as residual activity at 1 uM in the presence of NADPH incubated for 60 mins by LC-MS/MS analysis relative to control; assay type: ADME; conditions: read-out: Activity
CYP2C9, sequence (P11712 whole entry): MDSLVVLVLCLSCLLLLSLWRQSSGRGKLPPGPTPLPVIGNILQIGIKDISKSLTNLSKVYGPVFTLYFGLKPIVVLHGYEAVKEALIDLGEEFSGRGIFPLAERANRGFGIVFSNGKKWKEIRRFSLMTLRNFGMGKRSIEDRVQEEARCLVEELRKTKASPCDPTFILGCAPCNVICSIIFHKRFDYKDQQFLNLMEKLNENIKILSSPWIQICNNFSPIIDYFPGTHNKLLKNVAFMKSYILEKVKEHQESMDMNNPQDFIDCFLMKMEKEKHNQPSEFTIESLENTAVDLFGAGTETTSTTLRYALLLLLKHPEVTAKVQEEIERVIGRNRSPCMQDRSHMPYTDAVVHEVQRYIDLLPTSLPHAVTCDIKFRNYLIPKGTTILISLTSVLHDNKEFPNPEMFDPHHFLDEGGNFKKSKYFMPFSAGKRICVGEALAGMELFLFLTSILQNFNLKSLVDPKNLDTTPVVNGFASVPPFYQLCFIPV

[7] = target: CYP2C8 (Homo sapiens, UniProt P10632); assay: Inhibition of recombinant human CYP2C8 assessed as residual activity at 1 uM in the presence of NADPH incubated for 60 mins by LC-MS/MS analysis relative to control; assay type: ADME; conditions: read-out: Activity
CYP2C8, sequence (P10632 whole entry): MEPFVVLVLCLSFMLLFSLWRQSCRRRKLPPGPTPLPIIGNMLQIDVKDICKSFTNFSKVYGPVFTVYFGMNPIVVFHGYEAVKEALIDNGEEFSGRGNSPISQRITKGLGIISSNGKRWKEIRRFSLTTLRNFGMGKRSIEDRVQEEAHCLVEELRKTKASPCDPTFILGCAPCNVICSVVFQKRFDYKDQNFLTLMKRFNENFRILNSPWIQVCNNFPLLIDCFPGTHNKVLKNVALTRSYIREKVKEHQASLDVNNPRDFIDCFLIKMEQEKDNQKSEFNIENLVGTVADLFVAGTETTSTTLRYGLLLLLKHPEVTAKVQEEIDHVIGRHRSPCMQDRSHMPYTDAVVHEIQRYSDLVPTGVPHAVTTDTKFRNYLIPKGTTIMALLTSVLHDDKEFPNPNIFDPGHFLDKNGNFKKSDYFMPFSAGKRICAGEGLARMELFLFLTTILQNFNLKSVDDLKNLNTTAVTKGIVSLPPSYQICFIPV

[8] = target: Cytochrome P450 2B6 (Homo sapiens, UniProt P20813); assay: Inhibition of CYP2B6 in human liver microsomes in the presence of NADPH incubated for 60 mins by LC-MS/MS analysis; assay type: ADME, Microsome
Cytochrome P450 2B6, sequence (P20813 whole entry): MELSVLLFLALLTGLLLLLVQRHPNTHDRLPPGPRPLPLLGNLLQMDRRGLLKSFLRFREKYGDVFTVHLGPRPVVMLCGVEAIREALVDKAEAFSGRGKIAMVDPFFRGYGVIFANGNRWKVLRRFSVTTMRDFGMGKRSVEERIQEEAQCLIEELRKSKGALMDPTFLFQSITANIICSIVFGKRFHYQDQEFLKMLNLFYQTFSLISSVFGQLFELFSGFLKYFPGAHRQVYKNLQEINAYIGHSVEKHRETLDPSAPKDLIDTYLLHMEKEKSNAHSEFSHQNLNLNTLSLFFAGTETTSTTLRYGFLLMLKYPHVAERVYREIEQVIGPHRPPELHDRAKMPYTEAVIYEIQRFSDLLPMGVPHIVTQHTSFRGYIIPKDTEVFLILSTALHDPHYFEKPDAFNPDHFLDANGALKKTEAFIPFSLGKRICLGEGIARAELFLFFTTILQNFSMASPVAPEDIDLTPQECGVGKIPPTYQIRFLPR

[9] = target: Cytochrome P450 2D6 (Homo sapiens, UniProt P10635); assay: Inhibition of CYP2D6 in human liver microsomes in the presence of NADPH incubated for 60 mins by LC-MS/MS analysis; assay type: ADME, Microsome
Cytochrome P450 2D6, sequence (P10635 whole entry): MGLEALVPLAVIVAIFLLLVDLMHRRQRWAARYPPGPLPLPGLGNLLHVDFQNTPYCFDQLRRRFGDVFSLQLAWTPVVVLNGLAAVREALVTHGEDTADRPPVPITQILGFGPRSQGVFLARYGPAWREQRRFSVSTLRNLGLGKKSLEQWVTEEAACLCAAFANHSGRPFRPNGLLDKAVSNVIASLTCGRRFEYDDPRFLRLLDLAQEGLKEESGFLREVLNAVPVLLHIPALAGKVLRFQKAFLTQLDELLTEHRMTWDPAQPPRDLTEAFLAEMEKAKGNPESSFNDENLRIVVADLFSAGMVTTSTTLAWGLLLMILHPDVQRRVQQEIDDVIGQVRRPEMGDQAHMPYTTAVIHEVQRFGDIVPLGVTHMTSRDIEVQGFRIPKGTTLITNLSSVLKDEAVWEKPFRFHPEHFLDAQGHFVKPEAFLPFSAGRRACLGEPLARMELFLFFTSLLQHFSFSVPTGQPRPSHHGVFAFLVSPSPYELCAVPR

[10] = target: Cytochrome P450 2C9 (Homo sapiens, UniProt P11712); assay: Inhibition of CYP2C9 in human liver microsomes in the presence of NADPH incubated for 60 mins by LC-MS/MS analysis; assay type: ADME, Microsome
Cytochrome P450 2C9, sequence (P11712 whole entry): as the sequence (P11712 whole entry) above

[11] = Induction of CYP1A2 mRNA expression in human primary hepatocyte isolated from YND donor at 0.1 to 10 uM incubated for 72 hrs by real-time PCR analysis; assay type: ADME, cell-based; conditions: hepatocytes, dose 0.1-10 µM
[12] = Induction of CYP1A2 mRNA expression in human primary hepatocyte isolated from DZM donor at 0.1 to 10 uM incubated for 72 hrs by real-time PCR analysis; assay type: ADME, cell-based; conditions: hepatocytes, dose 0.1-10 µM
[13] = Toxicity in female CB17 SCID mouse xenografted with human JeKo-1 cells assessed as body weight at 40 mg/kg BID, po administered as 3 days on and 4 days off schedule for 24 days; assay type: organism-based; conditions: in vivo, 576 h, time 24 day
[14] = test system: LoVo; assay: Antitumor activity against human LoVo cells xenografted in female Balb/c nude mouse assessed as tumor growth inhibition at 10 mg/kg QD, po measured every 3 days for 25 days relative to control; assay type: functional; conditions: 600 h, time 25 day, read-out: TGI
[15] = Toxicity in female Balb/c nude mouse xenografted with human NCI-H1703 cells assessed as body weight at 40 mg/kg QD, po administered as 3 days on and 4 days off schedule for 4 weeks; assay type: organism-based; conditions: in vivo, 672 h, time 28 day

Q: For `Cc1nn(-c2cccnc2)c(C)c1-c1cc(N2CC3CCC(C2)O3)nc2c(-c3ccn[nH]3)cnn12.O=C(O)/C=C/C(=O)O`, which Activity [1] is on record?
A: The Activity was 2.65%.

Q: What about the permeability [2] of the same molecule?
A: Its permeability is “Permeable”.

Q: And the permeability [3]?
A: The permeability was “Permeable”.

Q: What about the fraction unbound at 5 h, 1 µM [4] of the same molecule?
A: The fraction unbound at 5 h, 1 µM was 0.256.

Q: And the Drug metabolism [5]?
A: Its Drug metabolism is “metabolite_notdetected”.

Q: And the activity at 1 h, 1 µM [6]?
A: Its activity at 1 h, 1 µM is 102%.

Q: What about the activity at 1 h, 1 µM [7] of the same molecule?
A: Its activity at 1 h, 1 µM is 16.3%.

Q: What about the IC50 [8] of the same molecule?
A: The IC50 was > 100 µM.

Q: What about the IC50 [9] of the same molecule?
A: Its IC50 is > 100 µM.

Q: What about the IC50 [10] of the same molecule?
A: The IC50 was 32.8 µM.

Q: What about the Activity [11] of the same molecule?
A: Its Activity is “Not_active”.

Q: And the Activity [12]?
A: The Activity was “Not_active”.

Q: What about the Activity [13] of the same molecule?
A: The Activity was “Non-toxic”.

Q: And the inhibition in vivo at 10 mg/kg [14]?
A: The inhibition in vivo at 10 mg/kg was 13.9%.

Q: What about the Activity [15] of the same molecule?
A: Its Activity is “Non-toxic”.
